Reference: patent US20100004248A1, “Use of a Nitric Oxide Synthase Modulator for the Treatment of Cardiac Indications” (priority 2005, published 2010)

Assays:
Protein kinase G = Protein kinase G activity in 9-week TAC hearts; assay type: in vivo, mouse; conditions: treatment during weeks 5-9
Excerpt: Protein kinase G activity increased nominally over time in 9-week TAC hearts, although this falls just short of statistical significance. […] Rather, the prior data supports an effect on reducing oxidant stress and re-coupling nitric oxide synthase.

[1] = test system: Adult myocytes isolated from wild-type C57/B16 mouse hearts; experiment: Sarcomere shortening of isolated adult myocytes exposed to isoproterenol; assay type: cell-based
[2] = test system: intact heart, beta-adrenergic stimulation by ISO; experiment: Contractility response of intact heart to isoproterenol (ISO); assay type: in vivo, mouse
Excerpt: Regulation of acute beta-adrenergic stress by PDE5a inhibition (resulting in a rise in cGMP and activation of protein kinase G) requires the activity of nitric oxide synthase (NOS). […] This can be offset by chronic distal activation of the NO target protein soluble guanylate cyclase 9sGC). At the left are bars depicting the contractility response of an intact heart to ISO before and after co-administration of SIL. The ISO response is normally blunted by nearly 80%. The middle bars show data from mice with NOS inhibited by L-NAME (1 mg/L in drinking water). […] However, if one continues to treat hearts with the soluble guanylate cyclase activator (BAY 41-8543) for a week-all the while continuing NOS inhibition with L-NAME, the ability of SIL to suppress adrenergic stimulation is restored.

In the case of `CCCc1nn(C)c2c(=O)[nH]c(-c3cc(S(=O)(=O)N4CCN(C)CC4)ccc3OCC)nc12` [Sildenafil, sildenafil], the PKG activity (Protein kinase G) is reported as “significantly increased”, the “ability to blunt the isoproterenol response” value ([1]; myocytes from hypertrophied and dilated hearts (3-4 weeks TAC), p=0.04) is reported as “markedly diminished” and the “blunting of isoproterenol-increased sarcomere shortening” value ([1]; wild-type myocytes, isoproterenol 10 micromolar, sildenafil 0.1) is reported as roughly 25%. For the same molecule, the “blunting of ISO contractility response” value ([2]; intact heart, co-administration of SIL) was roughly 80% and the “inhibition of ISO response with NOS inhibited” value ([2]; mice given L-NAME 1 mg/L in drinking water for 1 week) was “no longer inhibited”.
